Results reported in US20010029347A1, “Transdermal administrating device” (POLYTRONICS, LTD., priority 2000, published 2001).

Experiments:
[1] = Concentration of Polyoxomethalate ion in blood of nude mouse during iontophoresis with transdermal administrating device V (Example 5, no bias power supply); type: in vivo
Procedure: When the transdermal administrating device V according to Example 5 was loaded on the back of a nude mouse, the chemical cell formed by the active electrode 22 and the inert electrode 24 generated an electromotive force of about 2.9V.
Removing the variable resistor 31 out of the circuit, the measurement and arithmetic operation for Rd and the measurement of the blood concentration in blood [M^−] were performed to prepare a calibration line representing the relationship between the Rd and the [M^−].
Next, a Rd0 value corresponding to a target concentration [M^−]0 was determined from the calibration line and the variable resistor […] was connected to the circuit.
The concentration of drug was controlled by controlling the value of the variable resistor 31 with measuring the Rd at varying times.

[2] = set-up: species or system HWY hairless rats; details: HWY hairless, rat, in vivo
Procedure: Transdermal administrating devices were attached on the back of each body of HWY hairless rats. A number of the rats were three a group. The concentration of L-ascorbic acid in blood was chemically detected to control the drug concentration in the blood [M^−]. The procedure thereof is described hereunder.
First, a calibration line was prepared. The EB was set at 1.5 V and the transdermal administrating device was attached on the back of each of the test rats.
In addition, blood examination for the rats was performed at those times. From the blood examination, the concentration of ascorbic acid in blood [M^−] was determined.
Next, using the calibration line shown in FIG. 5, the concentration of ascorbic acid in blood [M^−] was promptly converged to a constant value.
According to the indication from the CPU 6, the bias DC power supply 7 was operated to set EB=8V.
When the concentration of ascorbic acid in blood [M^−] should be maintained at a constant value, for example, at 5 (arb. unit) in FIG. 5, the Rd0 should be 6.3 kΩ (kilo ohm) based on the calibration line shown in FIG. 5.
In this case, when the Rd was determined, the EB was temporarily changed to 1.5 V and the voltage drop Vi at the external load was measured.
At the measurement after the current flowing time has elapsed for 20 minutes, the Rd was lower than the Rd0. The CPU 6 operated to feed back the bias voltage to reduce the bias voltage EB.

K5[SiVW11O40] [Polyoxomethalate ion]
time after the beginning of flowing a current from which blood concentration [M-] is kept at the target concentration ([1]; control by variable resistor, no bias DC power supply): about 2 hours | permeability (iontophoresis through skin) ([1]; without bias DC power supply): high permeability

O=C1O[C@H]([C@@H](O)CO)C(O)=C1O [ascorbic acid, L-ascorbic acid]
concentration of ascorbic acid in blood [M-], overshoot value [2]: about 6.5 arb. unit | time after the beginning of flowing a current to converge to constant blood concentration [2]: about 1.5 hours | concentration of ascorbic acid in blood [M-], converged constant value ([2]; 1.5 hours): ~5 arb. unit
